Legend:
MATIN [1] = assay: Pre-emergence herbicidal action against MATIN; type: in vivo, Matricaria inodora
Outline: (§1)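 Herbicidal effect was assessed 3 weeks after treatment by visual comparison with untreated controls, 100% denoting dead plants. Aqueous WP or EC preparations had been applied at 600 to 800 l/ha with 0.2% wetting agent to the soil covering freshly sown seeds.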

ABUTH [2] = assay: Post-emergence herbicidal action against ABUTH; type: in vivo, Abutilon theophrasti; settings: visual assessment about 3 weeks after treatment vs untreated controls
Outline: (§2)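 Post-emergence greenhouse test; one-leaf stage, 2–3 wk post-sowing, sandy loam. Foliar spray of WP/EC in water, 600–800 l/ha, +0.2% wetting agent. Visual % action at ~3 wk vs untreated (100% = plants dead).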

VERPE [3] = assay: Post-emergence herbicidal action against VERPE; type: in vivo, Veronica persica; settings: 20 g/ha
Description: Seeds of monocotyledonous and dicotyledonous weed and crop plants are laid out in sandy loam soil in wood-fiber pots, covered with soil and cultivated in a greenhouse under good growth conditions. 2 to 3 weeks after sowing, the test plants are treated at the one-leaf stage. The compounds of the invention, formulated in the form of wettable powders (WP) or as emulsion concentrates (EC), are then sprayed onto the green parts of the plants in the form of an aqueous suspension or emulsion at a water application rate equivalent to 600 to 800 l/ha, with addition of 0.2% wetting agent. After the test plants have been left to stand in the greenhouse under optimal growth conditions for about 3 weeks, the action of the preparations is assessed visually in comparison to untreated controls (herbicidal action in percent (%): 100% activity=the plants have died, 0% activity=like control plants). […] The tables below illustrate, in an illustrative manner, the post-emergence herbicidal action of the compounds of the invention, the herbicidal activity being stated in percent.

PHBPU [4] = assay: Post-emergence herbicidal action against PHBPU; type: in vivo, Pharbitis purpurea
Outline: as §2

VIOTR [5] = assay: Post-emergence herbicidal action against VIOTR; type: in vivo, Viola tricolor
Outline: as §2

ECHCG [6] = assay: Pre-emergence herbicidal action against ECHCG; type: in vivo, Echinochloa crus-galli; settings: 80 g/ha
Outline: as §1

ABUTH [7] = assay: Pre-emergence herbicidal action against ABUTH; type: in vivo, Abutilon theophrasti; settings: for Pre-emergence action against ABUTH (herbicidal activity): 80 g/ha, scored visually after 3 weeks vs untreated controls (100% = plants have died, 0% = like control plants); for Pre-emergence action against ABUTH (herbicidal activity in percent): dosage 20 g/ha, scored visually after 3 weeks vs untreated controls, 100% = plants have died, 0% = like control plants
Outline: as §1

VERPE [8] = assay: Pre-emergence herbicidal action against VERPE; type: in vivo, Veronica persica
Outline: as §1

VIOTR [9] = assay: Pre-emergence herbicidal action against VIOTR; type: in vivo, Viola tricolor
Outline: as §1

AMARE [10] = assay: Post-emergence herbicidal action against AMARE; type: in vivo, Amaranthus retroflexus; settings: 20 g/ha, visual assessment about 3 weeks after treatment, 100% = plants have died, 0% = like control plants
Outline: as §2

ECHCG [11] = assay: Post-emergence herbicidal action against ECHCG; type: in vivo, Echinochloa crus-galli
Outline: as §2

AMARE [12] = assay: Pre-emergence herbicidal action against AMARE; type: in vivo, Amaranthus retroflexus
Outline: as §1

ALOMY [13] = assay: Post-emergence herbicidal action against ALOMY; type: in vivo, Alopecurus myosuroides; settings: dosage 20 g/ha, visual assessment about 3 weeks after treatment vs untreated controls
Outline: as §2

AVEFA = assay: Pre-emergence herbicidal action against AVEFA; type: in vivo, Avena fatua; settings: 80 g/ha, pre-emergence
Outline: as §1

ALOMY [14] = assay: Pre-emergence herbicidal action against ALOMY; type: in vivo, Alopecurus myosuroides; settings: 80 g/ha, pre-emergence, scored visually after 3 weeks vs untreated controls (100% = plants have died, 0% = like control plants)
Outline: as §1

DIGSA [15] = assay: Post-emergence herbicidal action against DIGSA; type: in vivo, Digitaria sanguinalis; settings: 20 g/ha
Outline: as §2

DIGSA [16] = assay: Pre-emergence herbicidal action against DIGSA; type: in vivo, Digitaria sanguinalis
Outline: as §1

SETVI [17] = assay: Pre-emergence herbicidal action against SETVI; type: in vivo, Setaria viridis
Outline: as §1

PHBPU [18] = assay: Pre-emergence herbicidal action against PHBPU; type: in vivo, Pharbitis purpurea
Excerpt: Seeds of monocotyledonous and dicotyledonous weed plants and crop plants are laid out in sandy loam soil in wood-fiber pots and covered with soil. The compounds of the invention, formulated in the form of wettable powders (WP) or as emulsion concentrates (EC), are then applied to the surface of the covering soil in the form of an aqueous suspension or emulsion at a water application rate equivalent to 600 to 800 l/ha, with addition of 0.2% wetting agent. After the treatment, the pots are placed in a greenhouse and kept under good growth conditions for the trial plants. The damage to the test plants is scored visually after a test period of 3 weeks by comparison with untreated controls (herbicidal activity in percent (%): 100% activity=the plants have died, 0% activity=like control plants). […] The tables below illustrate, in an illustrative manner, the post-emergence herbicidal action of the compounds of the invention, the herbicidal activity being stated in percent.

MATIN [19] = assay: Post-emergence herbicidal action against MATIN; type: in vivo, Matricaria inodora
Outline: as §2

SETVI [20] = assay: Post-emergence herbicidal action against SETVI; type: in vivo, Setaria viridis; settings: dosage 20 g/ha
Outline: as §2

[21] = 20 g/ha, scored visually after 3 weeks vs untreated controls, 100% = plants have died, 0% = like control plants
[22] = 80 g/ha, scored visually after 3 weeks vs untreated controls (100% = plants have died, 0% = like control plants)

Row | Structure (SMILES) | Pre-emergence action against MATIN in % (MATIN [1]; dosage 20 g/ha) [%] | Pre-emergence action against MATIN in % (MATIN [1]; dosage 80 g/ha) [%] | Post-emergence action against ABUTH in % (ABUTH [2]; dosage 5 g/ha) [%] | Post-emergence action against ABUTH in % (ABUTH [2]; dosage 20 g/ha) [%] | Post-emergence action against VERPE in % (VERPE [3]) [%] | Post-emergence action against PHBPU in % (PHBPU [4]; dosage 20 g/ha) [%] | Post-emergence action against VIOTR in % (VIOTR [5]; 20 g/ha) [%] | Pre-emergence action against ECHCG in % (ECHCG [6]) [%] | Pre-emergence action against ABUTH (herbicidal activity) (ABUTH [7]) [%] | Pre-emergence action against ABUTH (herbicidal activity in percent) (ABUTH [7]) [%] | Pre-emergence action against VERPE in % (VERPE [8]; dosage 80 g/ha) [%] | Pre-emergence action against VIOTR in % (VIOTR [9]; dosage 20 g/ha) [%] | Pre-emergence action against VIOTR in % (VIOTR [9]; dosage 80 g/ha) [%] | Post-emergence action at 20 g/ha against AMARE in % (AMARE [10]) [%] | Pre-emergence action against AMARE in % (AMARE [12]; [21]) [%] | Pre-emergence action against AMARE in % (AMARE [12]; [22]) [%] | Post-emergence action against ALOMY in % (ALOMY [13]) [%] | Pre-emergence action against AVEFA in % (AVEFA) [%] | Pre-emergence action against ALOMY (herbicidal activity) (ALOMY [14]) [%] | Pre-emergence action against PHBPU in % (PHBPU [18]; dosage 80 g/ha) [%] | further results
1 | CCn1nnnc1NC(=O)c1ccc(C(F)F)c(C(=O)NCCOC)c1C [Example 2-346] | 90 | 90 | 90 | 90 | 80 | 80 | 100 | 90 | 90 | 80 | 80 | 80 | 80 | 100 | 100 | 100 | 80 | 80 | 80 | – | Post-emergence action against VIOTR in % (VIOTR [5]; 5 g/ha): 80%; Post-emergence action against ECHCG in % (ECHCG [11]; dosage 5 g/ha): 80%; Post-emergence action against ECHCG in % (ECHCG [11]; dosage 20 g/ha): 90%
2 | Cc1nnc(NC(=O)c2ccc(C(F)(F)F)c(C(=O)NCC3CC3)c2C2CC2)o1 [Example 6-228] | – | 80 | – | – | – | 80 | – | 90 | 90 | – | – | – | – | 90 | – | 100 | – | – | – | 80 | Post-emergence action against DIGSA (DIGSA [15]): 80%; Pre-emergence action against DIGSA in % (DIGSA [16]; dosage 20 g/ha): 90%; Pre-emergence action against DIGSA in % (DIGSA [16]; dosage 80 g/ha): 100%; Pre-emergence action against SETVI in % (SETVI [17]; dosage 80 g/ha): 80%
3 | CCn1nnnc1NC(=O)c1ccc(C(F)F)c(C(=O)NCC2CCCO2)c1Cl (centres unmarked) [Example 2-159] | – | 90 | – | – | – | 90 | – | 90 | 100 | – | 80 | – | 80 | 100 | 100 | 100 | – | – | 80 | 90 | Post-emergence action against PHBPU in % (PHBPU [4]; dosage 5 g/ha): 80%
4 | CCn1nnnc1NC(=O)c1ccc(C(F)(F)F)c(C(=O)NC(C)C2CC2)c1Br (centres unmarked) [Example 2-213] | 100 | 100 | – | 80 | – | 80 | 90 | 90 | 100 | 100 | 90 | 100 | 100 | – | 100 | 100 | – | – | – | 90 | Post-emergence action against PHBPU in % (PHBPU [4]; dosage 5 g/ha): 80%; Post-emergence action against ECHCG in % (ECHCG [11]; dosage 5 g/ha): 80%; Post-emergence action against ECHCG in % (ECHCG [11]; dosage 20 g/ha): 80%; Post-emergence action against DIGSA (DIGSA [15]): 90%; Pre-emergence action against DIGSA in % (DIGSA [16]; dosage 20 g/ha): 80%; Pre-emergence action against DIGSA in % (DIGSA [16]; dosage 80 g/ha): 100%; Pre-emergence action against SETVI in % (SETVI [17]; dosage 80 g/ha): 100%; Post-emergence action against MATIN in % (MATIN [19]; dosage 5 g/ha): 90%; Post-emergence action against MATIN in % (MATIN [19]; dosage 20 g/ha): 100%; Pre-emergence action against PHBPU in % (PHBPU [18]; dosage 20 g/ha): 80%
5 | CCn1nnnc1NC(=O)c1ccc(OC)c(C(=O)NC2CC2)c1Cl [Example 2-354] | 100 | 100 | 90 | 90 | 90 | 80 | 100 | – | 100 | 90 | 80 | 80 | 100 | 100 | 100 | 100 | 80 | 90 | 90 | – | Post-emergence action against SETVI in % (SETVI [20]): 90%; Pre-emergence action against VERPE in % (VERPE [8]; dosage 20 g/ha): 80%
6 | CCn1nnnc1NC(=O)c1ccc(Br)c(C(=O)NCCOC)c1Cl [Example 2-186] | 80 | 100 | 80 | 90 | 80 | – | 80 | 100 | 100 | 100 | 90 | – | 90 | 100 | 100 | 100 | 80 | 80 | 100 | – | –
7 | Cn1nnnc1NC(=O)c1ccc(C(F)(F)F)c(C(=O)NCC2CCCO2)c1Cl (centres unmarked) [Example 1-141] | – | 100 | – | – | – | – | – | 90 | – | – | – | 80 | 100 | 100 | 100 | 100 | – | – | 90 | 80 | Pre-emergence action against DIGSA in % (DIGSA [16]; dosage 20 g/ha): 90%; Pre-emergence action against DIGSA in % (DIGSA [16]; dosage 80 g/ha): 100%; Pre-emergence action against SETVI in % (SETVI [17]; dosage 20 g/ha): 90%; Pre-emergence action against SETVI in % (SETVI [17]; dosage 80 g/ha): 100%
